Data set [1] has as its system Danio rerio. The experiment in a line: Toxicity in zebrafish AB embryos assessed as induction of patterning deffects at 10 uM dosed every 24 hrs measured 72 hrs post fertilization. The conditions noted are these: in vivo. It is filed as organism-based.
For data set [2], the target named is T1, Ecdysone receptor (Bombyx mori) (UniProt P49881).
T1 sequence (whole entry): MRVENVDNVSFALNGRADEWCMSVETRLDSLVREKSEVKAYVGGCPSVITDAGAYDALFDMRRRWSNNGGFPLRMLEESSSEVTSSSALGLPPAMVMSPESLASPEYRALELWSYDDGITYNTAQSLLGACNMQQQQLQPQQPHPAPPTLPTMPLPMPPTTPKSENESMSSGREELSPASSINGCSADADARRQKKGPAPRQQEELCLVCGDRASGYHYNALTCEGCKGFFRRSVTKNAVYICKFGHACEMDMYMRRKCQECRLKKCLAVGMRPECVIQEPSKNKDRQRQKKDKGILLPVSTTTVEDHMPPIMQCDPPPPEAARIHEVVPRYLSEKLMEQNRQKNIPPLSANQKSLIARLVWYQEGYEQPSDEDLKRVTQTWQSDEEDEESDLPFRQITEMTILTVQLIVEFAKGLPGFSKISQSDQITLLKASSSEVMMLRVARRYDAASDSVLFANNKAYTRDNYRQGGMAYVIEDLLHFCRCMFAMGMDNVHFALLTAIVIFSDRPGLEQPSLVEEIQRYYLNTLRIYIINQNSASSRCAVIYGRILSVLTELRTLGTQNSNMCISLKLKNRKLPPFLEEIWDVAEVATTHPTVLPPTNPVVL
The experiment in a line: Activation of Bombyx mori Ecdysone receptor (amino acids 272-606) expressed in HEK293 cells transfected with cytomegalovirus promoter-driven expression construct encoding chimeric transactivator composed of DBD and homodimerization domains of yeast Gal4 (amino acids 1-146) and VP16 activation domain (amino acids (413-490) at 10 uM exposed for 16 hrs by Gal4 dependent luciferase reportre gene assay relative to untreated control. It is filed as cell-based.

For data set [3], the target named is T1, Ecdysone receptor (Bombyx mori). The experiment in a line: Activation of Bombyx mori Ecdysone receptor (amino acids 272-606) expressed in HEK293 cells transfected with cytomegalovirus promoter-driven expression construct encoding chimeric transactivator composed of DBD and homodimerization domains of yeast Gal4 (amino acids 1-146) and VP16 activation domain (amino acids (413-456) at 10 uM exposed for 16 hrs by Gal4 dependent luciferase reportre gene assay relative to untreated control. Format: cell-based.

The target is the same in data set [4]. Nature of the data set: Activation of Bombyx mori Ecdysone receptor (amino acids 272-606) expressed in HEK293 cells transfected with cytomegalovirus promoter-driven expression construct encoding chimeric transactivator composed of DBD and homodimerization domains of yeast Gal4 (amino acids 1-146) and VP16 activation domain (amino acids (413-468) at 10 uM exposed for 16 hrs by Gal4 dependent luciferase reportre gene assay relative to untreated control. It is filed as cell-based.

Data set [5] has the same target. The experiment in a line: Activation of Bombyx mori Ecdysone receptor (amino acids 272-606) expressed in HEK293 cells transfected with cytomegalovirus promoter-driven expression construct encoding chimeric transactivator composed of DBD and homodimerization domains of yeast Gal4 (amino acids 1-146) and VP16 activation domain (amino acids (413-476) at 10 uM exposed for 16 hrs by Gal4 dependent luciferase reportre gene assay relative to untreated control. Format: cell-based.

The target is the same in data set [6]. The experiment in a line: Activation of Bombyx mori Ecdysone receptor (amino acids 272-606) expressed in HEK293 cells transfected with cytomegalovirus promoter-driven expression construct encoding chimeric transactivator composed of DBD and homodimerization domains of yeast Gal4 (amino acids 1-146) and VP16 activation domain (amino acids (456-490) at 10 uM exposed for 16 hrs by Gal4 dependent luciferase reportre gene assay relative to untreated control. It is filed as cell-based.

Data set [7] shares this target. The experiment in a line: Activation of Bombyx mori Ecdysone receptor (amino acids 272-606) expressed in HEK293 cells transfected with cytomegalovirus promoter-driven expression construct encoding chimeric transactivator composed of DBD and homodimerization domains of yeast Gal4 (amino acids 1-146) and VP16 activation domain (amino acids (468-490) at 10 uM exposed for 16 hrs by Gal4 dependent luciferase reportre gene assay relative to untreated control. Format: cell-based.

For data set [8], the species on record is Danio rerio. The experiment in a line: Toxicity in zebrafish AB embryos assessed as induction of patterning deffects at 10 uM single dose measured 72 hrs post fertilization. It is filed as organism-based. The settings on record: in vivo.
Data set [9] has as its system T2, Ecdysone receptor (Bombyx mori), P49881 [V454I,Y474E].
T2 sequence (whole entry): T1 sequence (whole entry) with V454I, Y474E
The experiment in a line: Activation of Bombyx mori Ecdysone receptor V454I and Y474E mutant (amino acids 272-606) expressed in AB zebrafish embryos transfected with cytomegalovirus promoter-driven expression construct encoding chimeric transactivator composed of DBD and homodimerization domains of yeast Gal4 (amino acids 1-146) and VP16 activation domain (amino acids (468-490) at 50 uM exposed for 2 to 6 hrs at 4 hrs post fertilization by Gal4 dependent luciferase reportre gene assay relative to untreated control.

The test system is the same in data set [10]. Nature of the data set: Induction of nuclear translocation of Bombyx mori Ecdysone receptor V454I and Y474E mutant (amino acids 272-606) expressed in AB zebrafish embryos transfected with cytomegalovirus promoter-driven expression construct encoding chimeric transactivator composed of DBD and homodimerization domains of yeast Gal4 (amino acids 1-146) and VP16 activation domain (amino acids (468-490) at 1 uM exposed for 30 mins at 4 hrs post fertilization by Gal4 dependent luciferase reportre gene assay relative to untreated control.

For data set [11] the test system is unchanged. Nature of the data set: Activation of Bombyx mori Ecdysone receptor V454I and Y474E mutant (amino acids 272-606)-mediated myl7 gene expression expressed in AB zebrafish embryos transfected with cytomegalovirus promoter-driven expression construct encoding chimeric transactivator composed of DBD and homodimerization domains of yeast Gal4 (amino acids 1-146) and VP16 activation domain (amino acids (468-490) assessed as myl7-promoter driven heart specific GFP expression at 10 uM exposed during 3 to 48 hrs post fertilization by Gal4 dependent luciferase reportre gene assay relative to untreated control.

For data set [12], the target named is T1, Ecdysone receptor (Bombyx mori). Nature of the data set: Activation of Bombyx mori Ecdysone receptor (amino acids 272-606) expressed in AB zebrafish embryos transfected with cytomegalovirus promoter-driven expression construct encoding chimeric transactivator composed of DBD and homodimerization domains of yeast Gal4 (amino acids 1-146) and VP16 activation domain (amino acids (413-490) at 10 uM exposed for 16 hrs by Gal4 dependent luciferase reportre gene assay relative to untreated control.

Data set [13] shares this target. The experiment in a line: Activation of Bombyx mori Ecdysone receptor (amino acids 272-606) expressed in AB zebrafish embryos transfected with cytomegalovirus promoter-driven expression construct encoding chimeric transactivator composed of DBD and homodimerization domains of yeast Gal4 (amino acids 1-146) and VP16 activation domain (amino acids (413-456) at 10 uM exposed for 16 hrs by Gal4 dependent luciferase reportre gene assay relative to untreated control.

The target is the same in data set [14]. Nature of the data set: Activation of Bombyx mori Ecdysone receptor (amino acids 272-606) expressed in AB zebrafish embryos transfected with cytomegalovirus promoter-driven expression construct encoding chimeric transactivator composed of DBD and homodimerization domains of yeast Gal4 (amino acids 1-146) and VP16 activation domain (amino acids (413-468) at 10 uM exposed for 16 hrs by Gal4 dependent luciferase reportre gene assay relative to untreated control.

The target is the same in data set [15]. The experiment in a line: Activation of Bombyx mori Ecdysone receptor (amino acids 272-606) expressed in AB zebrafish embryos transfected with cytomegalovirus promoter-driven expression construct encoding chimeric transactivator composed of DBD and homodimerization domains of yeast Gal4 (amino acids 1-146) and VP16 activation domain (amino acids (413-476) at 10 uM exposed for 16 hrs by Gal4 dependent luciferase reportre gene assay relative to untreated control.

Data set [16] has the same target. Nature of the data set: Activation of Bombyx mori Ecdysone receptor (amino acids 272-606) expressed in AB zebrafish embryos transfected with cytomegalovirus promoter-driven expression construct encoding chimeric transactivator composed of DBD and homodimerization domains of yeast Gal4 (amino acids 1-146) and VP16 activation domain (amino acids ([…]) at 10 uM exposed for 16 hrs by Gal4 dependent luciferase reportre gene assay relative to untreated control.

For data set [17] the target is unchanged. Nature of the data set: Activation of Bombyx mori Ecdysone receptor (amino acids 272-606) expressed in AB zebrafish embryos transfected with cytomegalovirus promoter-driven expression construct encoding chimeric transactivator composed of DBD and homodimerization domains of yeast Gal4 (amino acids 1-146) and VP16 activation domain (amino acids (468-490) at 10 uM exposed for 16 hrs by Gal4 dependent luciferase reportre gene assay relative to untreated control.

Data set [18] deals with T2, Ecdysone receptor (Bombyx mori), P49881 [V454I,Y474E]. The experiment in a line: Activation of Bombyx mori Ecdysone receptor V454I and Y474E mutant (amino acids 272-606) expressed in AB zebrafish embryos transfected with cytomegalovirus promoter-driven expression construct encoding chimeric transactivator composed of DBD and homodimerization domains of yeast Gal4 (amino acids 1-146) and VP16 activation domain (amino acids (456-490) at 10 uM exposed for 16 hrs by Gal4 dependent luciferase reportre gene assay relative to untreated control.

Data set [19] has the same test system. The experiment in a line: Activation of Bombyx mori Ecdysone receptor V454I and Y474E mutant (amino acids 272-606) expressed in AB zebrafish embryos transfected with cytomegalovirus promoter-driven expression construct encoding chimeric transactivator composed of DBD and homodimerization domains of yeast Gal4 (amino acids 1-146) and VP16 activation domain (amino acids (468-490) at 10 uM exposed for 16 hrs by Gal4 dependent luciferase reportre gene assay relative to untreated control.

Data set [20] has the same test system. The experiment in a line: Activation of Bombyx mori Ecdysone receptor V454I and Y474E mutant (amino acids 272-606)-mediated mylz2 gene expression expressed in AB zebrafish embryos transfected with cytomegalovirus promoter-driven expression construct encoding chimeric transactivator composed of DBD and homodimerization domains of yeast Gal4 (amino acids 1-146) and VP16 activation domain (amino acids (468-490) assessed as mylz2-promoter driven fats skeletal muscle specific GFP expression at 10 uM exposed during 3 to 48 hrs post fertilization by Gal4 dependent luciferase reportre gene assay relative to untreated control.

Substitutions are numbered along the chain they refer to. Activity calls are given as the source filed them. The rule behind the calls is not given here.

With `Cc1cc(C)cc(C(=O)N(NC(=O)c2ccc3c(c2C)OCCO3)C(C)(C)C)c1`, the Activity entry in data set [1] is on record as “Non-toxic”.
Take `COc1cccc(C(=O)NN(C(=O)c2cc(C)cc(C)c2)C(C)(C)C)c1C` [METHOXYFENOZIDE]: in [1], the Activity entry is listed as “Non-toxic”.
`CC(C)CC[C@@H](O)[C@](C)(O)[C@H]1CC[C@@]2(O)C3=CC(=O)[C@@H]4C[C@@H](O)[C@@H](O)C[C@]4(C)[C@H]3CC[C@]12C` [PONASTERONE A]: in data set [1], the Activity entry was “Non-toxic”. Also, the fold change (FC) in [2] was found to be 6.05; in [3], 26.1; in data set [4], 44; in data set [5], 18.7; in [6] it was 55.5; in [7], 19.5.
`CCc1ccc(C(=O)NN(C(=O)c2cc(C)cc(C)c2)C(C)(C)C)cc1` [TEBUFENOZIDE]: the Activity result was “Non-toxic” in data set [8], “Non-toxic” in data set [1], 44% in data set [11] and 69% in data set [20]. Further, the result in data set [9] and in data set [10] was Active. For the same compound, the fold change (FC) in [12] is 0.8; in data set [13], 1.13; in [14] it was 5.05; in data set [15], 1.73; in [16], 42.2; in data set [17] it was 113. Moreover, the fold change (FC) was 212 in data set [18]; 1070 in data set [19]; 14.5 in [2]; 139 in data set [3]; 114 in data set [4]; 57 in data set [5]. The results for the fold change (FC) in data set [6] and in data set [7] were 1420 and 880, respectively.

(Values after ChEMBL document CHEMBL1240322, “Small-molecule regulation of zebrafish gene expression” (Nat Chem Biol, 2007).)
